According to article PMC2217457 (The Journal of General Physiology, 2004):

Legend:
[1] = system: mouse AChR αR55W; details: 20 mM choline
[2] = system: mouse AChR αM144T
[3] = molecular target: T1, mouse muscle-type AChR wild-type (Mus musculus, UniProt P02716+P04756+P20782); details: wt AChR
[4] = system: mouse AChR αL146F
[5] = system: mouse AChR αI116A
[6] = system: mouse AChR αV54L
[7] = molecular target: T1, mouse muscle-type AChR wild-type; details: wt AChRs; ref Zhou et al., 1999; Grosman and Auerbach, 2000a; cited from earlier work
[8] = system: mouse AChR αS143A
[9] = system: mouse AChR αL65V
[10] = system: mouse AChR αN47K
[11] = system: mouse AChR αM144A
[12] = system: mouse AChR αN141V
[13] = system: mouse AChR αN47A
[14] = system: mouse AChR αL40A
[15] = system: mouse AChR αV29L
[16] = system: mouse AChR αR55A; details: 20 mM choline
[17] = system: mouse AChR αQ48A
[18] = system: mouse AChR αD138E
[19] = system: mouse AChR αS143T
[20] = system: mouse AChR αR20L; details: 0.4 mM choline
[21] = system: mouse AChR αV46I
[22] = system: mouse AChR αM144I
[23] = system: mouse AChR αM144L
[24] = system: mouse AChR αL146M
[25] = system: mouse AChR αL110V
[26] = system: mouse AChR αL56A
[27] = system: mouse AChR αF137M
[28] = system: mouse AChR αA122L
[29] = system: mouse AChR αL35A
[30] = system: mouse AChR αS126A; assay: Single-channel kinetics, αS126A AChR; type: cell-based; details: clusters at different concentrations of ACh
[31] = system: mouse AChR αV46A; assay: Single-channel kinetics, αV46A AChR; type: cell-based
[32] = system: mouse AChR αV46E; assay: Single-channel kinetics, αV46E AChR; type: cell-based
[33] = system: mouse AChR αP120G; assay: Single-channel kinetics, αP120G AChR; type: cell-based; details: clusters at different concentrations of ACh
[34] = system: mouse AChR αS126V; assay: Single-channel kinetics, αS126V AChR; type: cell-based; details: clusters at different concentrations of ACh

T1 sequence (P04756 21-457): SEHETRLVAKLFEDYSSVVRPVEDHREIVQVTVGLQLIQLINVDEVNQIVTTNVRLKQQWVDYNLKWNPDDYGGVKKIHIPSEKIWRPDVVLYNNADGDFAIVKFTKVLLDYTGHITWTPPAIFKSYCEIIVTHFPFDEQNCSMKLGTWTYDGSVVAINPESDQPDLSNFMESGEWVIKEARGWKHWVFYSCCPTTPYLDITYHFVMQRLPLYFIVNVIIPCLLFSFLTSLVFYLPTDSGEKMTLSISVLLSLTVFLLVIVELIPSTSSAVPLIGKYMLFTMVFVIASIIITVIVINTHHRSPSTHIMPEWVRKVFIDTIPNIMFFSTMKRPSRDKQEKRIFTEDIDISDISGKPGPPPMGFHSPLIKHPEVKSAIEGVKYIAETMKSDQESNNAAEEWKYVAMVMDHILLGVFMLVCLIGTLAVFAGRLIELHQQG
T1 sequence (P09690 24-501 partner): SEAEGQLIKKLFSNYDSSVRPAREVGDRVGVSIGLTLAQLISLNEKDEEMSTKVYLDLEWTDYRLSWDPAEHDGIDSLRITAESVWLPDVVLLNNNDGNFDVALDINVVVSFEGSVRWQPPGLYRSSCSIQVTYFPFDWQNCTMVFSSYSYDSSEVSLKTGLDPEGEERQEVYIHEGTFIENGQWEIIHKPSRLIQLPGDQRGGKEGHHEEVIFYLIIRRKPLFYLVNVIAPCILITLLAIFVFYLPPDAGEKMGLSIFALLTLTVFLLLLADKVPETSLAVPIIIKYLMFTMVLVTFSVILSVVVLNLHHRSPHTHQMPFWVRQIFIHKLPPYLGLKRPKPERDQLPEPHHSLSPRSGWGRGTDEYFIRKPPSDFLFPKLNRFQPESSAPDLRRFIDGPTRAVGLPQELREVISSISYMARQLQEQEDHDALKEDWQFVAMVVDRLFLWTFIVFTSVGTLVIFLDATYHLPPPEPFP
T1 sequence (P02716 25-520): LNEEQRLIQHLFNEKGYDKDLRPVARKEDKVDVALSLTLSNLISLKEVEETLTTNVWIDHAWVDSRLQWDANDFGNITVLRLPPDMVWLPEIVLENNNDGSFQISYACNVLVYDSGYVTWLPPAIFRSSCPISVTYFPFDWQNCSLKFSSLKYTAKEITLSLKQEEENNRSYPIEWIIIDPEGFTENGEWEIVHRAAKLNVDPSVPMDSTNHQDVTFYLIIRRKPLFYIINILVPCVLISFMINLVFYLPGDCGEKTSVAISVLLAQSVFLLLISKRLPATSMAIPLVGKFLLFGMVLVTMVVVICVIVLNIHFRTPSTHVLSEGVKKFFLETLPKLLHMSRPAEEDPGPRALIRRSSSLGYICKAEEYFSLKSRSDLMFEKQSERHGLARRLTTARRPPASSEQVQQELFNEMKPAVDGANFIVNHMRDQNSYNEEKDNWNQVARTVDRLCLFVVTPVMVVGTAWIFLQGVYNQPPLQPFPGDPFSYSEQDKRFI
T1 sequence (P20782 21-493): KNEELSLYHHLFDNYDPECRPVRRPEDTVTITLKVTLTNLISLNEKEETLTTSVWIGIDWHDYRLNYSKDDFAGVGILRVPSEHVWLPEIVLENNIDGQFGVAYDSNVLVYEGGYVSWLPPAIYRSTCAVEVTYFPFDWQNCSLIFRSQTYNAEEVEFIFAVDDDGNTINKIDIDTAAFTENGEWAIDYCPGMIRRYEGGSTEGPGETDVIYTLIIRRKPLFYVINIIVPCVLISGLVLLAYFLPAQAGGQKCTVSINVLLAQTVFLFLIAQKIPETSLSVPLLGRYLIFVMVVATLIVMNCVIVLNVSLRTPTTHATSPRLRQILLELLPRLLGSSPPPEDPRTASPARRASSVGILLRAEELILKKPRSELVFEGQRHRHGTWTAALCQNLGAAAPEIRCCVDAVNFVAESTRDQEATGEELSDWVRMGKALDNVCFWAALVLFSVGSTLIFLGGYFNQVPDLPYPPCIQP

For `C[N+](C)(C)CCO` [Choline, choline], the “β2 Choline (diliganded channel-opening rate constant)” value (shortened to “β2 Choline”) [1] was 98.2, the “α2 Choline (diliganded channel-closing rate constant)” value (from here on “α2 Choline”) ([2]; 0.4 mM choline) was 1,180 and the “β2 Choline” value ([2]; 20 mM choline) was 54. For the same compound, the “α2 Choline” value ([3]; 0.4 mM choline) was 2,100 s^−1, the “β2 Choline” value ([3]; 20 mM choline) was 100 s⁻¹ and the “α2 Choline” value ([4]; 0.4 mM choline) was 2,234. For the same compound, the “β2 Choline” value ([4]; 20 mM choline) was 97, the “α2 Choline” value ([5]; 0.4 mM choline) was 2,238 and the “β2 Choline” value ([5]; 20 mM choline) was 110. For the same compound, the “α2 Choline” value ([6]; 0.4 mM choline) was 1,340, the “β2 Choline” value ([6]; 20 mM choline) was 124 and the “diliganded gating equilibrium constant, times smaller than ACh” value [7] was 500 times. The “α2 Choline” value ([8]; 0.4 mM choline) was 3,054, the “β2 Choline” value ([8]; 20 mM choline) was 79 and the “α2 Choline” value ([9]; 0.4 mM choline) was 2,166. The “β2 Choline” value ([9]; 20 mM choline) was 124, the “α2 Choline” value ([10]; 0.4 mM choline) was 2,371 s^−1 and the “β2 Choline” value ([10]; 20 mM choline) was 607 s⁻¹. For the same compound, the “α2 Choline” value ([11]; 0.4 mM choline) was 2,514, the “β2 Choline” value ([11]; 20 mM choline) was 64 and the “α2 Choline” value ([12]; 0.4 mM choline) was 1,389 s^−1. For the same compound, the “β2 Choline” value ([12]; 20 mM choline) was 260 s⁻¹, the “α2 Choline” value ([13]; 0.4 mM choline) was 1,450 s^−1 and the “β2 Choline” value ([13]; 20 mM choline) was 933 s⁻¹. The “α2 Choline” value ([14]; 0.4 mM choline) was 1,629, the “β2 Choline” value ([14]; 20 mM choline) was 312 and the “α2 Choline” value ([15]; 0.4 mM choline) was 2,644. The “β2 Choline” value ([15]; 20 mM choline) was 200, the “β2 Choline” value [16] was 164 and the “α2 Choline” value ([17]; 0.4 mM choline) was 10,271 s^−1. For the same compound, the “β2 Choline” value ([17]; 20 mM choline) was 2,836 s^−1, the “α2 Choline” value ([18]; 0.4 mM choline) was 1,456 s^−1 and the “β2 Choline” value ([18]; 20 mM choline) was 239 s⁻¹. The “α2 Choline” value ([19]; 0.4 mM choline) was 2,200, the “β2 Choline” value ([19]; 20 mM choline) was 118 and the “α2 Choline” value [20] was 2,119. For the same compound, the “α2 Choline” value ([21]; 0.4 mM choline) was 1,982 s^−1, the “β2 Choline” value ([21]; 20 mM choline) was 249 s⁻¹ and the “α2 Choline” value ([22]; 0.4 mM choline) was 2,823. The “β2 Choline” value ([22]; 20 mM choline) was 93, the “α2 Choline” value ([23]; 0.4 mM choline) was 2,911 and the “β2 Choline” value ([23]; 20 mM choline) was 917. For the same compound, the “α2 Choline” value ([24]; 0.4 mM choline) was 2,435, the “β2 Choline” value ([24]; 20 mM choline) was 118 and the “α2 Choline” value ([25]; 0.4 mM choline) was 1,874. For the same compound, the “β2 Choline” value ([25]; 20 mM choline) was 70, the “α2 Choline” value ([26]; 0.4 mM choline) was 2,707 and the “β2 Choline” value ([26]; 20 mM choline) was 217. For the same compound, the “α2 Choline” value ([27]; 0.4 mM choline) was 1,017 s^−1, the “β2 Choline” value ([27]; 20 mM choline) was 225 s⁻¹ and the “α2 Choline” value ([28]; 0.4 mM choline) was 2,142. The “β2 Choline” value ([28]; 20 mM choline) was 358, the “α2 Choline” value ([29]; 0.4 mM choline) was 2,423 and the “β2 Choline” value ([29]; 20 mM choline) was 182.

For `CC(=O)OCC[N+](C)(C)C` [ACh, acetylcholine], the “α2 ACh (diliganded channel-closing rate constant)” value (“α2 ACh” for short) [30] was 2,598, the “β2 ACh (diliganded channel-opening rate constant)” value (“β2 ACh” for short) [30] was 48,918 and the “α2 ACh” value ([31]; low ACh) was 4,135 s^−1. The “β2 ACh” value ([31]; saturating ACh) was 1,340 s^−1, the “α2 ACh” value ([32]; low ACh) was 6,613 s^−1 and the “β2 ACh” value ([32]; saturating ACh) was 795 s⁻¹. The “α2 ACh” value [33] was 2,006, the “β2 ACh” value [33] was 49,531 and the “α2 ACh” value [34] was 1,770. The “β2 ACh” value [34] was 40,253.
